According to patent US7402697B2, “Antibacterial agents” (Idexx Laboratories Inc., priority 2004, dated 2008):
Values after ≈ are worked out from the molar mass of the structure shown. “Also recorded” adds a separate entry of the source.

Tests used:
[1] = Serum concentration as a function of time after subcutaneous administration to dogs (HPLC); assay type: in vivo; conditions: for clearance of each isomer, serum concentration as percent of CmaxR or CmaxS as a function of time: 40 mg/kg of A2 as equimolar mixture of (R) and (S) acylamido configuration; for clearance rate: compared with NUFLOR®
Protocol: The pharmaceutical composition was then administered to dogs at a dose of 40 mg/kg. Blood samples were taken from the dog at various time points and serum separated using standard methods well known to those skilled in the art. The serum was then analyzed using HPLC according to the following procedure: A C18 Sep-Pak Plus® cartridge (Sep-Pak) (commercially available from Waters of Milford, Mass.) was rinsed with 5 mL of methanol followed by 5 mL of water and loaded with 1 mL of serum. After loading, the Sep-Pak was washed with 2 mL of water, 2 mL of 15% aqueous acetonitrile, and 3 mL of hexane. The Sep-Pak was then eluted with 4 mL of acetonitrile and the eluant collected. The acetonitrile was evaporated using a stream of nitrogen to provide a residue and the resulting residue was reconstituted with 1 mL of 25% aqueous acetonitrile to provide an assay solution. 50 μL of the assay solution was then analyzed by HPCL using high pressure liquid chromatography equipped with a Beckman Coulter Ultraphere C-18 5 μM×4.6 mm×250 mm analytical column eluted at a flow of 1.2 mL/min. using a gradient of water and acetonitrile according to the following profile: [table] The HPLC system was interfaced to a UV detector operated at 223 nm. […] The pharmaceutical composition was then administered to dogs subcutaneously at a a dose of 40 mg/kg. Blood samples were taken from the dogs at various time points and the blood samples treated as described above. The serum was then analyzed using the HPLC procedure described above. […] The pharmaceutical composition was then administered to dogs subcutaneously at a a dose of 40 mg/kg. Blood samples were taken from the dogs at various time points and the blood samples treated as described above. The serum was then analyzed using the HPLC procedure described above. […] The maximum serum level was determined for each isomer (CmaxR and CmaxS, respectively).

[2] = system: B. subtitis; test: Minimum inhibitory concentration, disk diffusion susceptibility testing; assay type: cell-based
Protocol: (§1) The activity of a Fenicol Compound against a bacteria is determined using standard dilution tests. For example, the minimum inhibitory concentrations can be determined using the disk diffusion susceptibility testing method described in Clinical Microbiology Procedures Handbook, volume 1, edited by Henry D. Isenberg, American Society for Microbiology, 1992, section 5.1 or the well known method of Bauer et al. “Antibiotic Susceptibility Testing by a Standardized Single Disc Method,” Amer. J. Clin. Pathol., 45, p. 493-496.

[3] = system: K. pneumoniae; test: as above; assay type: cell-based
Protocol: as §1

[4] = system: S. pyogenes; test: as above; assay type: cell-based
Protocol: as §1

[5] = system: E. coli; test: as above; assay type: cell-based; conditions: for Minimum Inhibitory Concentration: E. coli
Protocol: as §1

[6] = system: E. faecalis; test: as above; assay type: cell-based
Protocol: as §1

[7] = system: S. aureaus; test: as above; assay type: cell-based
Protocol: as §1

[8] = system: B. bronchoseptica; test: as above; assay type: cell-based
Protocol: as §1

maximum serum concentration ([1]; 40 mg/kg) | SMILES | Minimum Inhibitory Concentration [2] [µg/mL] | Minimum Inhibitory Concentration [3] [µg/mL] | Minimum Inhibitory Concentration [4] [µg/mL] | Minimum Inhibitory Concentration [5] [µg/mL] | Minimum Inhibitory Concentration [7] [µg/mL] | Minimum Inhibitory Concentration [8] [µg/mL] | other results
 | C[C@H](C(=O)N[C@H](CF)[C@H](O)c1ccc(S(C)(=O)=O)cc1)C(F)(F)F [A2 wherein the acylamido group is present in the (R) stereoc] |  |  |  |  |  |  | clearance of each isomer, serum concentration as percent of CmaxR or CmaxS as a function of time ([1]; 40 mg/kg): decreases much more slowly
 | CC(F)C(=O)NC(CF)C(O)c1ccc(S(C)(=O)=O)cc1 (mixture of isomers) [E5 + I5 (Racemic Mixture)] | 1 | 5 | 5 | 5 | 5 | >10 | Minimum Inhibitory Concentration [6]: 3 µg/mL
~5 µg/mL | CC(C(=O)NC(CF)C(O)c1ccc(S(C)(=O)=O)cc1)C(F)(F)F (mixture of isomers) [A2] | 5 |  | 5 | 7 | 7 |  | serum concentration compared with NUFLOR® ([1]; 40 mg/kg): much higher serum concentration; clearance rate ([1]; 40 mg/kg): much slower than the clearance rate of NUFLOR®; also recorded: cleared more slowly than is NUFLOR®; Minimum Inhibitory Concentration [6]: 5 µg/mL
 | CS(=O)(=O)c1ccc([C@@H](O)[C@@H](CF)NC(=O)CCl)cc1 [D-threo-2-chloro-N-[1-(fluoromethyl)-2-hydroxy-2-[4-methylsulfonyl)phenyl]ethyl]-acetamide] | 0.5 | 5 |  | 3 | 2 | 3 | 
 | CC(Cl)C(=O)NC(CF)C(O)c1ccc(S(C)(=O)=O)cc1 (mixture of isomers) [E2 + I2 (Racemic Mixture)] | 0.5 | 5 |  | 3 | 2 | 3 | 
 | C[C@H](C(=O)N[C@H](CF)[C@H](O)c1ccc(S(C)(=O)=O)cc1)C(F)(F)F [A2 wherein the acylamido group has the (R) stereochemical co] |  |  |  |  |  |  | clearance of each isomer, serum concentration as percent of CmaxR or CmaxS as a function of time ([1]; 40 mg/kg): cleared more slowly
 | C[C@@H](C(=O)N[C@H](CF)[C@H](O)c1ccc(S(C)(=O)=O)cc1)C(F)(F)F |  |  |  |  |  |  | clearance of each isomer, serum concentration as percent of CmaxR or CmaxS as a function of time [1]: decreases rapidly
~7 µg/mL | CC(C)C(=O)N[C@H](CF)[C@H](O)c1ccc(S(C)(=O)=O)cc1 [A1] | 2 |  | 5 | 5 | 3 |  | serum concentration compared with NUFLOR® ([1]; 40 mg/kg): higher serum concentration than NUFLOR®; clearance rate ([1]; 40 mg/kg): cleared much more slowly; also recorded: cleared more slowly than NUFLOR®

SMILES | maximum serum concentration ([1]; 40 mg/kg) | Minimum Inhibitory Concentration [2] [µg/mL] | Minimum Inhibitory Concentration [3] [µg/mL] | Minimum Inhibitory Concentration [4] [µg/mL] | Minimum Inhibitory Concentration [5] [µg/mL] | Minimum Inhibitory Concentration [7] [µg/mL] | Minimum Inhibitory Concentration [8] [µg/mL] | other results
CS(=O)(=O)c1ccc([C@@H](O)[C@@H](CF)NC(=O)C(Cl)Cl)cc1 [Fluorfenicol, reference compound] | less than 0.8 μg/mL |  |  |  |  |  |  | MIC [2]: 1 µg/mL (≈ 2.79 µM); MIC ([3]; Klebsiella pneumoniae): 3 µg/mL (≈ 8.37 µM); MIC ([4]; Streptococcus pyogenes): 1 µg/mL (≈ 2.79 µM); MIC ([5]; Escherichia coli, read-out: Minimum Inhibitory Concentration): 1 µg/mL (≈ 2.79 µM); MIC ([6]; Enterococcus faecalis): 3 µg/mL (≈ 8.37 µM); MIC [7]: 1 µg/mL (≈ 2.79 µM); MIC [8]: 1 µg/mL (≈ 2.79 µM)
